Among the data in patent US8134004B2, “Substituted N-bicyclicalkyl bicycliccarboxyamide compounds” (Pfizer Inc., priority 2006, dated 2012) are IC50 values, retold here.

pIC50: −log10 of the molar value. Counter-ions that a name gives are not always drawn.

Chain of human VR1 (Q8NER1 whole entry): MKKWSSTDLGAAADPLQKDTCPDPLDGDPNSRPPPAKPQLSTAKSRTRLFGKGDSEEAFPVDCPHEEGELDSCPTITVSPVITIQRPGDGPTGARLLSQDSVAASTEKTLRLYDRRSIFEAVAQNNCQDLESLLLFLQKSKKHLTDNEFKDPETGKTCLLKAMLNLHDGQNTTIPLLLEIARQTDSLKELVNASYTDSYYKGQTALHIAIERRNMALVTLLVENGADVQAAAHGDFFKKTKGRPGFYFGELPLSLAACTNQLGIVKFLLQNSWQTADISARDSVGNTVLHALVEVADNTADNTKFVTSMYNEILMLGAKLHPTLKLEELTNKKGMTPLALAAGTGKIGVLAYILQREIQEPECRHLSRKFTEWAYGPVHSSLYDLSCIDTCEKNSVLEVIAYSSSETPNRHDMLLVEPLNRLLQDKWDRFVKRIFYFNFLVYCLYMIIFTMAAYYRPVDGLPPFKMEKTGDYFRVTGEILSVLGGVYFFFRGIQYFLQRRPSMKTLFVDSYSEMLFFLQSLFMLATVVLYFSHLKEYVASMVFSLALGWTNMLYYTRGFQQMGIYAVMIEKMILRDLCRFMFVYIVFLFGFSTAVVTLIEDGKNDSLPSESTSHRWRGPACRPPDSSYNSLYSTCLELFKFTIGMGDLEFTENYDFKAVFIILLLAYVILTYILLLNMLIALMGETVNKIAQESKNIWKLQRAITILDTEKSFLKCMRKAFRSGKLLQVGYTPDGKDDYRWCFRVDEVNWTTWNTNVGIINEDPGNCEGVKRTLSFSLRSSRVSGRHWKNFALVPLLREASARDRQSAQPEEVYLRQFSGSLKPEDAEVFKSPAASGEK

The target of this experiment is human VR1 (Homo sapiens, UniProt Q8NER1). The experiment is described as follows: Human VR1 antagonist assay (Ca2+ imaging). The format is cell-based. The conditions noted are these: Ca2+ imaging assay using human VR1 highly expressing cells, fura-2/AM; agonist stimulation (capsaicin 300 nM or acid pH 5.8), not given. The source says:
Human VR1 Antagonist Assay
VR1 antagonistic activity can be determined by the Ca^2+ imaging assay using human VR1 highly expressing cells. The cells that highly express human VR1 receptors are obtainable from several different conventional methods. The one standard method is cloning from human Dorsal Root Ganglion (DRG) or kidney according to the methods such as described in the journal article; Nature, 389, pp 816-824, 1997. Alternatively VR1 receptors highly expressing human keratinocytes are also known and published in the journal article (Biochemical and Biophysical Research Communications, 291, pp 124-129, 2002). […] Furthermore, the method to up regulate human VR1 gene, which is usually a silent gene or don't produce detectable level of VR1 receptors, is also available to obtain propriety cells. Such genetic modification method was described in detail; Nat. Biotechnol., 19, pp 440-445, 2001.
The cells that express human VR1 receptors were maintained in culture flask at 37° C. in an environment containing 5% CO2 until use in the assay. The intracellular Ca^2+ imaging assay to determine VR1 antagonistic activities were done by following procedures.
The culture medium was removed from the flask and fura-2/AM fluorescent calcium indicator was added to the flask at a concentration of 5 μM in the medium. The flask was placed in CO2 incubator and incubated for 1 hour. Then the cells expressing the human VR1 receptors were detached from the flask follow by washing with phosphate buffer saline, PBS(−) and re-suspended in assay buffer. The 80 μl of aliquot of cell suspension (3.75×10^5 cells/ml) was added to the assay plate and the cells were spun down by centrifuge (950 rpm, 20° C., 3 minutes).
The compounds of the examples were tested in the Human VR1 antagonist assay described above.
The capsaicin-induced changes in the intracellular calcium concentration were monitored using FDSS 6000 (Hamamatsu Photonics, Japan), a fluorometric imaging system. The cell suspension in Krebs-Ringer HEPES (KRH) buffer (115 mM NaCl, 5.4 mM KCl, 1 mM MgSO4, 1.8 mM CaCl2, 11 mM D-Glucose, 25 mM HEPES, 0.96 mM Na2HPO4, pH 7.3) were pre-incubated with varying concentrations of the test compounds or KRH buffer (buffer control) for 15 minutes at room temperature under the dark condition. Then capsaicin solution, which gives 300 nM in assay mixture, was automatically added to the assay plate by the FDSS 6000.
The Acid-induced changes in the intracellular calcium concentration were monitored using FDSS 6000 (Hamamatsu Photonics, Japan), a fluorometric imaging system. The cell suspension in resting buffer (HBSS supplemented with 10 mM HEPES, pH 7.4) were pre-incubated with varying concentrations of the test compounds or resting buffer (buffer control) for 15 minutes at room temperature under the dark condition. The cells were automatically added the stimulating solution (HBSS supplemented with MES, final assay buffer pH5.8) by the FDSS 6000.
The monitoring of the changes in the fluorescence signals (λex=340 nm/380 nm, λem=510-520 nm) was initiated at 1 minute prior to the addition of capsaicin solution or acidic buffer and continued for 5 minute.
For the molecule `CC(NC(=O)c1ccc2nc(C(C)(C)C(F)(F)F)ccc2c1)c1ccc2[nH]c(=O)[nH]c2c1` (stereo not shown) [Example C9, N-[1-(2-oxo-2,3-dihydro-1H-benzimidazol-5-yl)ethyl]-2-(2,2,2-trifluoro-1,1-dimethylethyl)quinoline-6-carboxamide], the negative-log IC50 (pIC50) is 6.82.
Turning to `CC(C)(C)c1ccc2nc(C(=O)NCc3ccnc4ccccc34)ccc2c1` [Example B3, 6-tert-butyl-N-(quinolin-4-ylmethyl)quinoline-2-carboxamide], the negative-log IC50 (pIC50) was 6.93.
Next, `C[C@@H](NC(=O)c1ccc2cc(C(C)(C)C)ccc2n1)c1ccc2[nH]nnc2c1` [Example B1, N-[(1R)-1-(1H-1,2,3-benzotriazol-6-yl)ethyl]-6-tert-butylquinoline-2-carboxamide]: 8.02; `C[C@@H](NC(=O)c1ccc2nc(C(C)(O)C(F)(F)F)ccc2c1)c1ccnc2ccccc12` (stereo partly drawn) [Example C15, N-[(1R)-1-quinolin-4-ylethyl]-2-(2,2,2-trifluoro-1-hydroxy-1-methylethyl)quinoline-6-carboxamide]: 6.50; `CC(NC(=O)c1ccc2cc(C(C)(C)C)ccc2c1)c1ccc2c(c1)CC(=O)N2` (stereo not shown) [Example A4, 6-tert-butyl-N-[1-(2-oxo-2,3-dihydro-1H-indol-5-yl)ethyl]-2-naphthamide]: 7.07.
On to `O=C(NCc1ccnc2ccccc12)c1ccc2cc(C3CC3)ccc2c1` [Example A8, 6-cyclopropyl-N-(quinolin-4-ylmethyl)-2-naphthamide], for which the pIC50 is 6.39.
Then `C[C@@H](NC(=O)c1ccc2nc(C(C)(C)C(F)(F)F)ccc2c1)c1ccnc2ccccc12` (single isomer, unassigned) [Example C13], with 7.30; and `CC(C)(c1ccc2cc(C(=O)NCc3ccnc4ccc(F)cc34)ccc2n1)C(F)(F)F` [Example C11, N-[(6-fluoroquinolin-4-yl)methyl]-2-(2,2,2-trifluoro-1,1-dimethylethyl)quinoline-6-carboxamide], with 6.76.
Then `COC(C)(c1ccc2cc(C(=O)NCc3ccnc4ccccc34)ccc2c1)C(F)(F)F` (stereo not shown) [Example A6, N-(quinolin-4-ylmethyl)-6-(1,1,1-trifluoro-2-methoxypropan-2-yl)-2-naphthamide], with 7.28.
Next, `CC(NC(=O)c1cnc2cc(C(C)(C)C)ccc2c1)c1ccnc2ccccc12` (stereo not shown) [Example D1, 7-tert-butyl-N-(1-quinolin-4-ylethyl)quinoline-3-carboxamide]: 6.61; `CC(C)(C)c1ccc2cc(C(=O)NCc3ccnc4ccccc34)ccc2c1` [Example A2]: 7.77.
`CC(O)(c1ccc2cc(C(=O)NCc3cccc4cnccc34)ccc2n1)C(F)(F)F` (stereo not shown) [Example C17, N-(isoquinolin-5-ylmethyl)-2-(2,2,2-trifluoro-1-hydroxy-1-methylethyl)quinoline-6-carboxamide] gave a pIC50 of 6.75.
Then `CC(C)(c1ccc2cc(C(=O)NCc3cccc4cnccc34)ccc2n1)C(F)(F)F` [Example C7, N-(isoquinolin-5-ylmethyl)-2-(2,2,2-trifluoro-1,1-dimethylethyl) quinoline-6-carboxamide], with 7.57; and `C[C@@H](NC(=O)c1ccc2cc(C(C)(C)C)ccc2n1)c1ccnc2ccccc12` (single isomer, unassigned) [Example B7, 6-tert-butyl-N-(1-quinolin-4-ylethyl)quinoline-2-carboxamide], with 6.88; and `CC1(c2ccc3cc(C(=O)NCc4ccnc5ccccc45)ccc3c2)CC1` [Example A7, 6-(1-methylcyclopropyl)-N-(quinolin-4-ylmethyl)-2-naphthamide], with 6.85.
Then `C[C@@H](NC(=O)c1ccc2cc(C(C)(O)C(F)(F)F)ccc2c1)c1ccnc2ccccc12` (stereo partly drawn) [Example A9, N-[(1R)-1-quinolin-4-ylethyl]-6-(2,2,2-trifluoro-1-hydroxy-1-methylethyl)-2-naphthamide], with 6.42; and `Oc1cc2c(cc1O)CN(C(=S)NCCc1ccc(Cl)cc1)CCC2` [capsazepine, reference compound], with 6.34 to 6.63.
Then `Cc1cccc2c(CNC(=O)c3ccc4nc(C(C)(C)C(F)(F)F)ccc4c3)ccnc12` [Example C16, N-[(8-methylquinolin-4-yl)methyl]-2-(2,2,2-trifluoro-1,1-dimethylethyl)quinoline-6-carboxamide], with 6.36.
Take `Cc1cc(CNC(=O)c2ccc3nc(C(C)(C)C(F)(F)F)ccc3c2)c2ccccc2n1` [Example C8, N-[(2-methylquinolin-4-yl)methyl]-2-(2,2,2-trifluoro-1,1-dimethylethyl)quinoline-6-carboxamide]: the pIC50 is 6.45.
`CC(C)(c1ccc2cc(C(=O)NC(CO)c3ccnc4ccccc34)ccc2n1)C(F)(F)F` (stereo not shown) [Example C20, N-(2-hydroxy-1-quinolin-4-ylethyl)-2-(2,2,2-trifluoro-1,1-dimethylethyl)quinoline-6-carboxamide]: the pIC50 was 6.24.
Then `C[C@@H](NC(=O)c1ccc2nc(C(C)(C)C)ccc2c1)c1ccc2[nH]c(=O)[nH]c2c1` [Example C2, 2-tert-butyl-N-[(1R)-1-(2-oxo-2,3-dihydro-1H-benzimidazol-6-yl)ethyl]quinoline-6-carboxamide], with 6.85.
Next, `CC(C)(c1ccc2cc(C(=O)NCc3ccnc4ccccc34)ccc2n1)C(F)(F)F` [Example C5, N-(quinolin-4-ylmethyl)-2-(2,2,2-trifluoro-1,1-dimethylethyl) quinoline-6-carboxamide]: 7.14; `Cc1ccc2nccc(CNC(=O)c3ccc4nc(C(C)(C)C(F)(F)F)ccc4c3)c2c1` [Example C14, N-[(6-methylquinolin-4-yl)methyl]-2-(2,2,2-trifluoro-1,1-dimethylethyl)quinoline-6-carboxamide]: 6.37.
Next, `CC(C)(c1ccc2cc(C(=O)NCc3ccnc4c(F)cc(F)cc34)ccc2n1)C(F)(F)F` [Example C12, N-[(6,8-difluoroquinolin-4-yl)methyl]-2-(2,2,2-trifluoro-1,1-dimethylethyl)quinoline-6-carboxamide]: 6.58; `CC(NC(=O)c1ccc2nc(C(C)(C)C(F)(F)F)ccc2c1)c1ccc2c(c1)CC(=O)N2` (stereo not shown) [Example C10, N-[1-(2-oxo-2,3-dihydro-1H-indol-5-yl)ethyl]-2-(2,2,2-trifluoro-1,1-dimethylethyl)quinoline-6-carboxamide]: 6.56.
On to `C[C@@H](NC(=O)c1ccc2cc(C(C)(C)C)ccc2c1)c1ccc2nn[nH]c2c1` [Example A1, N-[(1R)-1-(1H-1,2,3-benzotriazol-6-yl)ethyl]-6-tert-butyl-2-naphthamide], for which the negative-log IC50 (pIC50) is 7.75.
Regarding `CCC(NC(=O)c1ccc2nc(C(C)(C)C(F)(F)F)ccc2c1)c1ccnc2ccccc12` (stereo not shown) [Example C18, N-(1-quinolin-4-ylpropyl)-2-(2,2,2-trifluoro-1,1-dimethylethyl) quinoline-6-carboxamide], the pIC50 is 6.87.
Then `CC(NC(=O)c1ccc2nc(C(C)(C)C)ccc2c1)c1ccc2c(c1)CC(=O)N2` (stereo not shown) [Example C3, 2-tert-butyl-N-[1-(2-oxo-2,3-dihydro-1H-indol-5-yl)ethyl] quinoline-6-carboxamide], with 6.62.
`CC(NC(=O)c1ccc2cc(C(C)(C)C)ccc2n1)c1ccnc2ccccc12` (stereo not shown) [Example B5, 6-tert-butyl-N-(1-quinolin-4-ylethyl)quinoline-2-carboxamide hydrochloride]: the pIC50 is 6.69.
The molecule `CC(NC(=O)c1ccc2cc(C(C)(C)C)ccc2c1)c1ccc2[nH]ncc2c1` (stereo not shown) [Example A5, 6-tert-butyl-N-[1-1H-indazole-5-ylethyl]-2-naphthamide] gave a negative-log IC50 (pIC50) of 7.79.
Next, `CC[C@@H](NC(=O)c1ccc2cc(C(C)(C)C)ccc2n1)c1ccc2[nH]nnc2c1` [Example B2, N-[(1R)-1-(1H-1,2,3-benzotriazol-6-yl)propyl]-6-tert-butylquinoline-2-carboxamide]: 6.80.

What is called pIC50 is the IC50 on a negative log10 scale, so that one unit is a factor of ten. High values mean a low IC50, low ones a high IC50.
